Laboratory results from ChEMBL document CHEMBL2311300, “Fragment-based design, synthesis, and biological evaluation of N-substituted-5-(4-isopropylthiophenol)-2-hydroxynicotinamide derivatives as novel Mcl-1 inhibitors” (Eur J Med Chem, 2013).

Assays:
[1] = molecular target: T1, Induced myeloid leukemia cell differentiation protein Mcl-1 (Homo sapiens, UniProt Q07820); test: Inhibition of FAM-Bid peptide binding to Mcl1 (unknown origin) expressed in Escherichia coli BL21 by fluorescence polarization-based binding assay
T1 sequence (Q07820 whole entry): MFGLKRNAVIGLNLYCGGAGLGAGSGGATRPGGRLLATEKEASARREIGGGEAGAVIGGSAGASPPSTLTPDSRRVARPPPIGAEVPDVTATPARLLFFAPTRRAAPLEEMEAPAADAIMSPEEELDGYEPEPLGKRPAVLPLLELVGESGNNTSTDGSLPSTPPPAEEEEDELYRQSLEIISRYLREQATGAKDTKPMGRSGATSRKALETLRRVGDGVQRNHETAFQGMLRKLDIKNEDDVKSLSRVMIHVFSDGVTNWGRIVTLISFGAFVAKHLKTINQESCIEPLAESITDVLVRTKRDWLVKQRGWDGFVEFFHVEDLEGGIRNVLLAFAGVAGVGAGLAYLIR

[2] = molecular target: T1, Induced myeloid leukemia cell differentiation protein Mcl-1; test: Inhibition of biotin-Bim peptide binding to Mcl1 (unknown origin) expressed in Escherichia coli BL21 by ELISA
[3] = molecular target: T1, Induced myeloid leukemia cell differentiation protein Mcl-1; test: Binding affinity to Mcl1 (unknown origin) expressed in Escherichia coli BL21 by ITC assay
K562 = test: Induction of apoptosis in Mcl1 dependent human K562 cells after 48 hrs by Annexin V staining based flow cytometry; assay type: functional, cell-based; settings: K562, 48 h
RS4-11 = test: Induction of apoptosis in Bcl2 dependent human RS4:11 cells after 48 hrs by Annexin V staining based flow cytometry; assay type: functional, cell-based; settings: RS4-11, 48 h

Row | Compound | IC50 ([1]; read-out: IC50) [µM] | Ki ([1]; read-out: Ki) [µM] | IC50 [2] [nM] | Ki [2] [nM] | also measured
1 | N#CC(C#N)=c1c(=O)c2cccc3cccc1c32 | 71.5 | 2.85 | – | – | –
2 | Cc1cc2c(C(C)C)c(O)c(O)c(C=O)c2c(O)c1-c1c(C)cc2c(C(C)C)c(O)c(O)c(C=O)c2c1O [GOSSYPOL] | 4.8 | 0.19 | 170 | 214 | –
3 | N#Cc1cc(-c2cccc3ccccc23)cnc1O | 158 | 6.32 | – | – | –
4 | O=C1C(=O)c2cccc3cccc1c23 [ACENAPHTHOQUINONE] | 1420 | 57 | – | – | –
5 | CC(C)c1ccc(Sc2cnc(O)c(C(=O)NCCCc3ccccc3)c2)cc1 | – | – | 192 | 191 | –
6 | CC(C)c1ccc(Sc2cnc(O)c(C(=O)NCc3ccccc3)c2)cc1 | – | – | 54 | 53.7 | Kd [3]: 980 nM; IC50 (K562): 0.84 µM
7 | N#Cc1cc(-c2ccc(-c3ccccc3)cc2)cnc1O | 316 | 12.6 | – | – | –
8 | CN(C)CC[C@H](CSc1ccccc1)Nc1ccc(S(=O)(=O)NC(=O)c2ccc(N3CCN(Cc4ccccc4-c4ccc(Cl)cc4)CC3)cc2)cc1[N+](=O)[O-] [ABT 737] | – | – | – | – | IC50 (RS4-11): 270 nM; IC50 (K562): 16.4 µM
9 | N#CC1=C2C(=NC1=O)c1cccc3c(N4CCSCC4)ccc2c13 | – | – | 46 | 45.7 | –
10 | N#Cc1ccc[nH]c1=O | 2730 | 109 | – | – | –
11 | COc1ccnc(O)c1C#N | – | – | – | – | IC50 [1]: Not Active; Ki [1]: Not Active
12 | N#Cc1cc(-c2ccccc2)c[nH]c1=O | 261 | 10.4 | – | – | –

Continued, in another order:

Row | IC50 ([1]; read-out: IC50) [µM] | Ki ([1]; read-out: Ki) [µM] | IC50 [2] [nM] | Ki [2] [nM] | Compound | also measured
13 | 82.2 | 3.29 | – | – | N#Cc1cc(Sc2ccccc2)c[nH]c1=O | –
14 | 383 | 15.3 | – | – | CC(C)c1ccc(Sc2cc(C#N)c(=O)n(Cc3ccccc3)c2)cc1 | –
15 | – | – | 241 | 224 | CCCCNC(=O)c1cc(Sc2ccc(C(C)C)cc2)c[nH]c1=O | –
16 | 133 | 5.31 | – | – | N#Cc1cc(Sc2ccc(N)cc2)c[nH]c1=O | –
17 | 178 | 7.09 | – | – | CCC(C)(C)c1ccc(Sc2cnc(O)c(C#N)c2)cc1 | –
18 | 63.1 | 2.52 | – | – | Cc1ccc(Sc2cnc(O)c(C#N)c2)cc1 | –
19 | 21.5 | 0.86 | 890 | 891 | CC(C)c1ccc(Sc2c[nH]c(=O)c(C#N)c2)cc1 | –
20 | 121 | 4.83 | – | – | N#Cc1cc(Sc2ccc(Br)cc2)c[nH]c1=O | –
21 | 205 | 8.19 | – | – | N#Cc1cc(-c2ccc(Cl)cc2)c[nH]c1=O | –
22 | – | – | 501 | 468 | CC(C)NC(=O)c1cc(Sc2ccc(C(C)C)cc2)c[nH]c1=O | –
